Earlier results, collected in patent publication US7759338B2, “Soluble 1,4 benzodiazepine compounds and stable salts thereof” (The Regents of the University of Michigan, priority 2006, dated 2010).

How the values were obtained:
[1] = molecular target: mitochondrial F1Fo-ATPase; conditions: F1Fo-ATPase inhibition
[2] = system: rodents; conditions: two daily doses

CC[C@H]1/C=C/C=C/C[C@@H](C)[C@H](O)[C@@](C)(O)C(=O)[C@@H](C)[C@H](O)[C@@H](C)C(=O)[C@@H](C)[C@H](O)[C@@H](C)/C=C/C(=O)O[C@@H]2[C@H](C)[C@H](CC1)O[C@]1(CC[C@H](C)[C@H](C[C@@H](C)O)O1)[C@H]2C [oligomycin]
IC50 [1]: 0.01 µM
LD50 [2]: 0.5 mg/kg
